Assay results as given in patent US7335654B2, “Phosphodiesterase 4 inhibitors” (Memory Pharmaceuticals Corporation, priority 2002, dated 2008).

Columns and labels:
[1] = tested on: rats (male Spraque-Dawley (Harlan)); experiment: Radial arm maze task in rats, in vivo test for learning and memory; parameters: species or system rat; conditions: MK-801 0.1 mg/kg, i.p., compared to control (p<0.01)
Description: The test was performed as previously described (Zhang, H.-T., Crissman, A. M., Dorairaj, N. R., Chandler, L. J., and O'Donnell, J. M., Neuropsychopharmacology, 2000, 23, 198-204.). Five days after initial housing, rats (male Spraque-Dawley (Harlan) weighing 250 to 350 g) were placed in the eight-arm radial maze (each arm was 60×10×12 cm high; the maze was elevated 70 cm above the floor) for acclimation for two days. Rats were then placed individually in the center of the maze for 5 minutes with food pellets placed close to the food wells, and then, the next day, in the wells at the end of the arms; 2 sessions a day were conducted. Next, four randomly selected arms were then baited with one pellet of food each. The rat was restricted to the center platform (26 cm in diameter) for 15 seconds and then allowed to move freely throughout the maze until it collected all pellets of food or 10 minutes passed, whichever came first. Four parameters were recorded: 1) working memory errors, i.e., entries into baited arms that had already been visited during the same trial; 2) reference memory errors, i.e., entries into unbaited arms; 3) total arm entries; and 4) the test duration (seconds), i.e., the time spent in the collection of all the pellets in the maze. […]
(§1) All data were analyzed by analyses of variance (ANOVA); individual comparisons were made using Kewman-Keuls tests. […]

[2] = tested on: rat (Male Spraque-Dawley (Harlan)); experiment: Passive avoidance in rats, in vivo test for learning and memory; conditions: retention test 24 hours after electric shock; MK-801 0.1 mg/kg pretreatment compared to the vehicle (p<0.001)
Description: The test was performed as previously described (Zhang, H.-T., Crissman, A. M., Dorairaj, N. R., Chandler, L. J., and O'Donnell, J. M., Neuropsychopharmacology, 2000, 23, 198-204.). The apparatus (Model E10-16SC, Coulbourn Instruments, Allentown, Pa.) consisted of a two-compartment chamber with an illuminated compartment connected to a darkened compartment by a guillotine door. The floor of the darkened compartment consisted of stainless steel rods through which an electric foot-shock could be delivered from a constant current source. All experimental groups were first habituated to the apparatus the day before the start of the experiment. During the training, the rat (Male Spraque-Dawley (Harlan) weighing 250 to 350 g) was placed in the illuminated compartment facing away from the closed guillotine door for 1 minute before the door was raised. The latency for entering the darkened compartment was recorded. After the rat entered the darkened compartment, the door was closed and a 0.5 mA electric shock was administered for 3 seconds. […] The latency for entering the darkened compartment was recorded for up to 180 seconds, at which time the trial was terminated.
as §1

C[C@]12N[C@H](Cc3ccccc31)c1ccccc12 [MK-801]
frequency of reference memory errors [1]: increased | frequency of working memory errors [1]: increased | latency for entering the darkened compartment [2]: markedly reduced
